Reference: patent publication US20230087342A1, “AZEPANE DERIVATIVE” (Nippon Chemiphar Co., Ltd., priority 2019, published 2023)

Each compound was assayed against T1, human κ opioid receptors (Homo sapiens, UniProt P41145) (assay: Opioid receptor function test (Lance Ultra cAMP kit, agonist activity)). Conditions: CHO cells expressing human κ opioid receptors, 10 μM forskolin, 30 minutes.
T1 construct: host or cells: CHO cells
Assay type: cell-based
Protocol: Opioid Receptor Function Test
The function activity of the compound of the present invention on κ opioid receptors was examined.
Method: Using a Lance Ultra cAMP kit (Perkin Elmer), the examination was performed according to a predetermined method. In evaluation of agonist activity, CHO cells expressing human κ opioid receptors (Catalog No. CT6606, accession No. NM_000912) and a test compound were reacted in an assay buffer (1×HSS, 5 mM HEPES, pH 7.4, 0.5 mM IBMX (isobutylmethyixanthine), 0.1% SA) in the presence of 10 μM forskolin for 30 minutes. Subsequently, a cAMP detection reagent in the kit was added. One hour later, time-resolved fluorescence measurement was performed using an EnVision plate reader (Perkin Elmer). The evaluation of the test compound was performed in a concentration range of 10^−14 to 10^−7 M for the κ opioid receptor function test.

T1 sequence (P41145 whole entry): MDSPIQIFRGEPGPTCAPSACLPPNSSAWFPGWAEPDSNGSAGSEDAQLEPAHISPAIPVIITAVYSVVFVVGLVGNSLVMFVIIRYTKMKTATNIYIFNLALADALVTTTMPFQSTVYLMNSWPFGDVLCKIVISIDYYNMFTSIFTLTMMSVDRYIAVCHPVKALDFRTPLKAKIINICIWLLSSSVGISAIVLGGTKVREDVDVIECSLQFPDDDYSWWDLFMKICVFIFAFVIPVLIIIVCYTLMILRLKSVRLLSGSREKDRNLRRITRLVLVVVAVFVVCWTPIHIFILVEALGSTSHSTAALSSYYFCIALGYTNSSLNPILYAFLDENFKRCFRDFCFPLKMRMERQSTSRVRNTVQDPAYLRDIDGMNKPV

| Structure (SMILES) | EC50 [nM] |
| --- | --- |
| O=C(Cn1cc(C2CC2)cn1)N1CC[C@]23CCN(CC4CC4)[C@H](Cc4ccc(O)cc42)[C@]3(O)CC1 [Example 160, 2-(4-cyclopropyl-1H-pyrazol-1-yl)-1-((5aS,6R,11bR)-14-(cyclopropylmethyl)-5a,10-dihydroxy-1,2,5,5a,6,7-hexahydro-6,11b-(epiminoethano)naphtho[1,2-d]azepin-3(4H)-yl)ethan-1-one] | 0.045 |
| Oc1ccc2c(c1)[C@@]13CCN(CCc4ccccn4)CC[C@@]1(O)[C@@H](C2)N(CC1CCC1)CC3 [Example 162, (5aS,6R,11bS)-14-(cyclobutylmethyl)-3-(2-(pyridin-2-yl)ethyl)-2,3,4,5,6,7-hexahydro-6,11b-(epiminoethano)naphtho[1,2-d]azepine-5a,10(1H)-diol] | 0.39 |
| Cc1cn(CC(=O)N2CC[C@]34CCN(CC5CC5)[C@H](Cc5ccc(O)cc53)[C@]4(O)CC2)nc1C(F)(F)F [Example 163, 1-((5aS,6R,11bR)-14-(cyclopropylmethyl)-5a,10-dihydroxy-1,2,5,5a,6,7-hexahydro-6,11b-(epiminoethano)naphtho[1,2-d]azepin-3(4H)-yl)-2-(4-methyl-3-(trifluoromethyl)-1H-pyrazol-1-yl)ethan-1-one] | 0.076 |
| Cc1cn(CCN2CC[C@]34CCN(CC5CC5)[C@H](Cc5ccc(O)cc53)[C@]4(O)CC2)nc1C(F)(F)F [Example 164, (5aS,6R,11bS)-14-(cyclopropylmethyl)-3-(2-(4-methyl-3-(trifluoromethyl)-1H-pyrazol-1-yl)ethyl)-2,3,4,5,6,7-hexahydro-6,11b-(epiminoethano)naphtho[1,2-d]azepine-5a,10(1H)-diol] | 0.26 |
| CC(C)c1cn(CC(=O)N2CC[C@]34CCN(CC5CC5)[C@H](Cc5ccc(O)cc53)[C@]4(O)CC2)nn1 [Example 165, 1-((5aS,6R,11bR)-14-(cyclopropylmethyl)-5a,10-dihydroxy-1,2,5,5a,6,7-hexahydro-6,11b-(epiminoethano)naphtho[1,2-d]azepin-3(4H)-yl)-2-(4-isopropyl-1H-1,2,3-triazol-1-yl)ethan-1-one] | 0.28 |
| Cc1ccn(CCN2CC[C@]34CCN(CC5CC5)[C@H](Cc5ccc(O)cc53)[C@]4(O)CC2)c1 [Example 166, (5aS,6R,11bS)-14-(cyclopropylmethyl)-3-(2-(3-methyl-1H-pyrrol-1-yl)ethyl)-2,3,4,5,6,7-hexahydro-6,11b-(epiminoethano)naphtho[1,2-d]azepine-5a,10(1H)-diol] | 0.31 |
| Cc1cc(CC(=O)N2CC[C@]34CCN(CC5CC5)[C@H](Cc5ccc(O)cc53)[C@]4(O)CC2)ns1 [Example 168, 1-((5aS,6R,11bR)-14-(cyclopropylmethyl)-5a,10-dihydroxy-1,2,5,5a,6,7-hexahydro-6,11b-(epiminoethano)naphtho[1,2-d]azepin-3(4H)-yl)-2-(5-methylisothiazol-3-yl)ethan-1-one] | 0.047 |
| O=C(CCn1cc(C(F)(F)F)cn1)N1CC[C@]23CCN(CC4CC4)[C@H](Cc4ccc(O)cc42)[C@]3(O)CC1 [Example 169, 1-((5aS,6R,11bR)-14-(cyclopropylmethyl)-5a,10-dihydroxy-1,2,5,5a,6,7-hexahydro-6,11b-(epiminoethano)naphtho[1,2-d]azepin-3(4H)-yl)-3-(4-(trifluoromethyl)-1H-pyrazol-1-yl)propan-1-one] | 0.094 |
| Oc1ccc2c(c1)[C@@]13CCN(CCCn4cc(C(F)(F)F)cn4)CC[C@@]1(O)[C@@H](C2)N(CC1CC1)CC3 [Example 179, (5aS,6R,11bS)-14-(cyclopropylmethyl)-3-(3-(4-(trifluoromethyl)-1H-pyrazol-1-yl)propyl)-2,3,4,5,6,7-hexahydro-6,11b-(epiminoethano)naphtho[1,2-d]azepine-5a,10(1H)-diol] | 0.024 |
| O=C(CN1CCC(F)(F)C1)N1CC[C@]23CCN(CC4CC4)[C@H](Cc4ccc(O)cc42)[C@]3(O)CC1 [Example 181, 1-((5aS,6R,11bR)-14-(cyclopropylmethyl)-5a,10-dihydroxy-1,2,5,5a,6,7-hexahydro-6,11b-(epiminoethano)naphtho[1,2-d]azepin-3(4H)-yl)-2-(3,3-difluoropyrrolidin-1-yl)ethan-1-one] | 0.32 |
| Oc1ccc2c(c1)[C@@]13CCN(CCN4CCC(F)(F)C4)CC[C@@]1(O)[C@@H](C2)N(CC1CC1)CC3 [Example 182, (5aS,6R,11bS)-14-(cyclopropylmethyl)-3-(2-(3,3-difluoropyrrolidin-1-yl)ethyl)-2,3,4,5,6,7-hexahydro-6,11b-(epiminoethano)naphtho[1,2-d]azepine-5a,10(1H)-diol] | 0.22 |
| Oc1ccc2c(c1)[C@@]13CCN(CCn4cc(C5CC5)cn4)CC[C@@]1(O)[C@@H](C2)N(CC1CC1)CC3 [Example 183, (5aS,6R,11bS)-3-(2-(4-cyclopropyl-1H-pyrazol-1-yl)ethyl)-14-(cyclopropylmethyl)-2,3,4,5,6,7-hexahydro-6,11b-(epiminoethano)naphtho[1,2-d]azepine-5a,10(1H)-diol] | 0.03 |
| Oc1ccc2c(c1)[C@@]13CCN(CCn4cc(F)cn4)CC[C@@]1(O)[C@@H](C2)N(CC1CC1)CC3 [Example 184, (5aS,6R,11bS)-14-(cyclopropylmethyl)-3-(2-(4-fluoro-1H-pyrazol-1-yl)ethyl)-2,3,4,5,6,7-hexahydro-6,11b-(epiminoethano)naphtho[1,2-d]azepine-5a,10(1H)-diol] | 0.095 |
| Cc1cc(CC(=O)N2CC[C@]34CCN(CC5CC5)[C@H](Cc5ccc(O)cc53)[C@]4(O)CC2)no1 [Example 185, 1-((5aS,6R,11bR)-14-(cyclopropylmethyl)-5a,10-dihydroxy-1,2,5,5a,6,7-hexahydro-6,11b-(epiminoethano)naphtho[1,2-d]azepin-3(4H)-yl)-2-(5-methylisoxazol-3-yl)ethan-1-one] | 0.39 |
| CN(C)CCC(=O)N1CC[C@]23CCN(CC4CC4)[C@H](Cc4ccc(O)cc42)[C@]3(O)CC1 [Example 186, 1-((5aS,6R,11bR)-14-(cyclopropylmethyl)-5a,10-dihydroxy-1,2,5,5a,6,7-hexahydro-6,11b-(epiminoethano)naphtho[1,2-d]azepin-3(4H)-yl)-3-(dimethylamino)propan-1-one] | 0.99 |
| Cc1cc(CCN2CC[C@]34CCN(CC5CC5)[C@H](Cc5ccc(O)cc53)[C@]4(O)CC2)no1 [Example 188, (5aS,6R,11bS)-14-(cyclopropylmethyl)-3-(2-(5-methylisoxazol-3-yl)ethyl)-2,3,4,5,6,7-hexahydro-6,11b-(epiminoethano)naphtho[1,2-d]azepine-5a,10(1H)-diol] | 0.69 |
| N#Cc1cnn(CCN2CC[C@]34CCN(CC5CC5)[C@H](Cc5ccc(O)cc53)[C@]4(O)CC2)c1 [Example 189, 1-(2-((5aS,6R,11bS)-14-(cyclopropylmethyl)-5a,10-dihydroxy-1,2,5,5a,6,7-hexahydro-6,11b-(epiminoethano)naphtho[1,2-d]azepin-3(4H)-yl)ethyl)-1H-pyrazole-4-carbonitrile] | 0.39 |
| O=C(CCc1ccccn1)N1CC[C@]23CCN(CC4CC4)[C@H](Cc4ccc(O)cc42)[C@]3(O)CC1 [Example 190, 1-((5aS,6R,11bR)-14-(cyclopropylmethyl)-5a,10-dihydroxy-1,2,5,5a,6,7-hexahydro-6,11b-(epiminoethano)naphtho[1,2-d]azepin-3(4H)-yl)-3-(pyridin-2-yl)propan-1-one] | 0.32 |
| CCc1cc(CC(=O)N2CC[C@]34CCN(CC5CC5)[C@H](Cc5ccc(O)cc53)[C@]4(O)CC2)no1 [Example 191, 1-((5aS,6R,11bR)-14-(cyclopropylmethyl)-5a,10-dihydroxy-1,2,5,5a,6,7-hexahydro-6,11b-(epiminoethano)naphtho[1,2-d]azepin-3(4H)-yl)-2-(5-ethylisoxazol-3-yl)ethan-1-one] | 0.48 |
| CCc1cnn(CCN2CC[C@]34CCN(CC5CC5)[C@H](Cc5ccc(O)cc53)[C@]4(O)CC2)c1 [Example 193, (5aS,6R,11bS)-14-(cyclopropylmethyl)-3-(2-(4-ethyl-1H-pyrazol-1-yl)ethyl)-2,3,4,5,6,7-hexahydro-6,11b-(epiminoethano)naphtho[1,2-d]azepine-5a,10(1H)-diol] | 0.035 |
| CC(C)c1cnn(CCN2CC[C@]34CCN(CC5CC5)[C@H](Cc5ccc(O)cc53)[C@]4(O)CC2)c1 [Example 195, (5aS,6R,11bS)-14-(cyclopropylmethyl)-3-(2-(4-isopropyl-1H-pyrazol-1-yl)ethyl)-2,3,4,5,6,7-hexahydro-6,11b-(epiminoethano)naphtho[1,2-d]azepine-5a,10(1H)-diol] | 0.023 |
| CN(C)CC(=O)N1CC[C@]23CCN(CC4CC4)[C@H](Cc4ccc(O)cc42)[C@]3(O)CC1 [Example 198, 1-((5aS,6R,11bR)-14-(cyclopropylmethyl)-5a,10-dihydroxy-1,2,5,5a,6,7-hexahydro-6,11b-(epiminoethano)naphtho[1,2-d]azepin-3(4H)-yl)-2-(dimethylamino)ethan-1-one] | 0.59 |
| Oc1ccc2c(c1)[C@@]13CCN(CCc4ccsn4)CC[C@@]1(O)[C@@H](C2)N(CC1CC1)CC3 [Example 209, (5aS,6R,11bS)-14-(cyclopropylmethyl)-3-(2-(isothiazol-3-yl)ethyl)-2,3,4,5,6,7-hexahydro-6,11b-(epiminoethano)naphtho[1,2-d]azepine-5a,10(1H)-diol] | 0.05 |
| O=C(CCc1nccs1)N1CC[C@]23CCN(CC4CC4)[C@H](Cc4ccc(O)cc42)[C@]3(O)CC1 [Example 210, 1-((5aS,6R,11bR)-14-(cyclopropylmethyl)-5a,10-dihydroxy-1,2,5,5a,6,7-hexahydro-6,11b-(epiminoethano)naphtho[1,2-d]azepin-3(4H)-yl)-3-(thiazol-2-yl)propan-1-one] | 0.72 |
